MIC data for 3 molecules are collected here from DBAASP.

Among the test systems are Proteus vulgaris; Escherichia coli; Escherichia coli UB1005; Escherichia coli K88; Escherichia coli ER2566; Listeria monocytogenes; Candida albicans; Escherichia coli 078.
Assay in all cases: ≥ marks a high value that may be exact or a test limit, other limits are often not marked, values filed in µg/mL are converted to µM
Test [1] has as its system Bacillus megaterium ATCC 19213.
Test [2] concerns Staphylococcus aureus NBRC 12732.
The subject of test [3] is Staphylococcus epidermidis NBRC 12933.
For test [4], the system named is Bacillus subtilis NBRC 3513.
The test system of test [5] is Bacillus subtilis KCTC 1918.
Test [6] concerns Bacillus megaterium KCTC 1096.
For test [7], the system named is Escherichia coli KCTC 1682.
Test [8] has as its system Staphylococcus aureus KCTC 1621.
Test [9] concerns Pseudomonas aeruginosa KCTC 1637.
Test [10] deals with Pseudomonas aeruginosa ATCC 21630.
Test [11] relates to Enterococcus faecalis ATCC 29212.
The test system of test [12] is Escherichia coli CMCC 44102.
Test [13] relates to Salmonella enterica subsp. enterica serovar Pullorum C79-13.
The subject of test [14] is Salmonella enterica subsp. enterica serovar Typhimurium ATCC 14028.
The test system of test [15] is Pseudomonas aeruginosa ATCC 21625.
Test [16] deals with Neisseria gonorrhoeae FA-19.
The test system of test [17] is Escherichia coli CVCC 1515.
The subject of test [18] is Staphylococcus aureus ATCC 29213.
In test [19] the test system is Neisseria gonorrhoeae F-62.
Test [20] relates to Staphylococcus epidermidis ATCC 12228.
Test [21] concerns Staphylococcus aureus ATCC 25923.
Test [22] has as its system Bacillus subtilis ATCC 11060.
Test [23] relates to Pseudomonas aeruginosa ATCC 10419.
For test [24], the system named is Pseudomonas aeruginosa ATCC 27853.
The test system of test [25] is Salmonella enterica subsp. enterica serovar Typhimurium C77-31.

Structures are written as SMILES. Converted amounts (≈) assume the structure as drawn.

Turning to `CC[C@H](C)[C@H](NC(=O)[C@H](C)N)C(=O)N[C@@H](Cc1ccccc1)C(=O)N[C@H](C(=O)N[C@@H](Cc1ccccc1)C(=O)N[C@H](C(=O)N[C@@H](CCCN=C(N)N)C(=O)N[C@@H](Cc1c[nH]c2ccccc12)C(=O)N[C@@H](CC(C)C)C(=O)N[C@@H](CC(C)C)C(=O)N[C@@H](CCCCN)C(=O)N[C@@H](CC(C)C)C(=O)NCC(=O)N[C@@H](Cc1cnc[nH]1)C(=O)N[C@@H](Cc1cnc[nH]1)C(=O)NCC(=O)N[C@@H](CCCN=C(N)N)C(=O)O)[C@@H](C)CC)[C@@H](C)CC` [AIFIFIRWLLKLGHHGR], the MIC (as a rule, the least concentration at which growth counts as inhibited) in test [1] stood at 4 µM (≈ 8.31 µg/mL); in test [2], 4 µM (≈ 8.31 µg/mL); in test [3], 8 µM (≈ 16.6 µg/mL); in [4], 16 µM (≈ 33.2 µg/mL).

For `CC[C@H](C)[C@H](NC(=O)[C@H](CCCCN)NC(=O)[C@H](CCCCN)NC(=O)[C@H](Cc1ccccc1)NC(=O)[C@H](CC(C)C)NC(=O)[C@H](CCCCN)NC(=O)[C@H](Cc1c[nH]c2ccccc12)NC(=O)[C@@H](N)CCCCN)C(=O)N1CCC[C@H]1C(=O)N[C@@H](CC(C)C)C(=O)N[C@@H](Cc1cnc[nH]1)C(=O)N[C@@H](CC(C)C)C(=O)N[C@@H](C)C(=O)N[C@@H](CCCCN)C(=O)N[C@@H](CCCCN)C(=O)N[C@@H](Cc1ccccc1)C(N)=O` [KWKLFKKIPLHLAKKF], the MIC against Proteus vulgaris was 1.56 µM (≈ 3.16 µg/mL); in test [5], 1.1 µM (≈ 2.23 µg/mL); in test [6], 3.12 µM (≈ 6.33 µg/mL); in test [7], 8.84 µM (≈ 17.9 µg/mL); in test [8], 3.12 µM (≈ 6.33 µg/mL); in test [9] it was 6.25 µM (≈ 12.7 µg/mL).

For `CC(C)C[C@H](NC(=O)CNC(=O)CNC(=O)CNC(=O)[C@@H](N)CCCNC(=N)N)C(=O)N[C@H]1CSSC[C@@H](C(=O)N[C@H](C(=O)NCC(=O)N[C@@H](CCCNC(=N)N)C(N)=O)C(C)C)NC(=O)[C@H](C(C)C)NC(=O)[C@@H]2CSSC[C@H](NC(=O)[C@H](Cc3ccc(O)cc3)NC1=O)C(=O)N[C@@H](CCCNC(=N)N)C(=O)N[C@@H](CCCNC(=N)N)C(=O)N[C@@H](CCCNC(=N)N)C(=O)N[C@@H](Cc1ccccc1)C(=O)N2` [RGGGLCYCRRRFCVCVGR], the MIC in [10] is 8.05 µM (≈ 16.6 µg/mL); in test [11], 32.2 µM (≈ 66.2 µg/mL); against Escherichia coli, 1.12 µM (≈ 2.29 µg/mL); in [12], 1.02 µM (≈ 2.09 µg/mL); against Escherichia coli UB1005 it was 1.99 µM (≈ 4.09 µg/mL); in test [13], 1.99 µM (≈ 4.09 µg/mL). In addition, the MIC in test [14] was 1.99 µM (≈ 4.09 µg/mL); in the test with Escherichia coli K88 it was 4.03 µM (≈ 8.28 µg/mL); in test [15], 8.05 µM (≈ 16.6 µg/mL); in [16], 0.873 µM (≈ 1.8 µg/mL); in the test with Escherichia coli ER2566, 0.485 µM (≈ 0.998 µg/mL); in test [17] it was 1.99 µM (≈ 4.09 µg/mL). Also, the MIC in [18] was determined as 4.03 µM (≈ 8.28 µg/mL); in test [19], 0.679 µM (≈ 1.4 µg/mL); in [20], 32.2 µM (≈ 66.2 µg/mL); in [21], 8.05 µM (≈ 16.6 µg/mL); with Listeria monocytogenes it was 1.36 µM (≈ 2.79 µg/mL); in the test with Candida albicans it was 4.66 µM (≈ 9.58 µg/mL). Also, the MIC was determined as 16.1 µM (≈ 33.1 µg/mL) in test [22]; 16.1 µM (≈ 33.1 µg/mL) with Escherichia coli 078; 4.03 µM (≈ 8.28 µg/mL) in test [23]; 4.03 µM (≈ 8.28 µg/mL) in test [24]; 4.03 µM (≈ 8.28 µg/mL) in [25].
